As usually defined, the LD50 is the dose at which mortality reaches 50%.

The source of these data is US4981855A, “Medicament for psoriasis” (Takeda Chemical Industries, Ltd., priority 1988, dated 1991).

The test system of series [1] is Type III Allergic Reaction (Reversed Passive Arthus Reaction). Kind of series: Type III allergic reaction (reversed passive Arthus reaction) in rats, oral (Experiment 1). The format is in vivo, Rat (Jcl:SD). The note with it: Rat; for inhibition in vivo at 3 mg/kg: 1 h, 3 mg/kg P.O., one hour before egg albumin, blue spot area vs. control, * P < 0.05, ** P < 0.01, read-out: Inhibition rate (%); for ED50: P.O., read-out: ID50 values. The procedure: Effect on Type III Allergic Reaction (Reversed Passive Arthus Reaction) in Rats
A group consisting of six Jcl:SD rats (7 week old, male) was used. The hair of the back of the animals was cut, under ether anesthesia, and 1 ml each of a 0.5% solution of egg albumin in physiological saline solution was injected into the tail vein of each test animal, followed by intradermal injection of 0.1 ml of rabbit anti-egg albumin antiserum at each of the left and right sides of the back and a further intradermal injection of 0.1 ml of physiological saline solution at the left side. Three hours later, each animal was intraveneously injected with 1 ml of 1% Evans' blue physiological saline solution. Thirty minutes later, the test animals were exfoliated and the area(mm^2) of each of the blue spots was measured. […] By comparing the area(mm^2) of the blue spot in the test group (treated group) with that of the control group (untreated group), inhibition rate was determined.

Series [2] has as its system Reversed Passive Arthus Reaction. Kind of series: Rat reversed passive Arthus reaction, percutaneous ointment (Experiment 2). In kind it is in vivo, Rat (Jcl:SD). Particulars: for Inhibition rate (%): ointment (white petrolatum base). The procedure: A group consisting of six Jcl:SD rats (7 week old, male) was used. The hair of the back of the animals was cut, under ether anesthesia, and 1 ml each of a 0.5% solution of egg albumin in physiological saline solution was injected into the tail vein of each test animal, followed by intradermal injection of 0.1 ml of rabbit anti-egg albumin antiserum at each of the left and right sides of the back and a further intradermal injection of 0.1 ml of physiological saline solution at the left side. Three hours later, each animal was intraveneously injected with 1 ml of 1% Evans' blue physiological saline solution. Thirty minutes later, the test animals were exfoliated and the area(mm^2) of each of the blue spots was measured. The test sample in a dose of 3 mg/kg was orally administered one hour before the injection of egg albumin. By comparing the area(mm^2) of the blue spot in the test group (treated group) with that of the control group (untreated group), inhibition rate was determined.
In place of the oral administration of 3 mg/kg of each specimen, two type of ointments (of which base is white petrolatum) different in specimen content as given in Table 2 and control petrolatum were applied to the reaction sites in an experiment in a similar manner as in Experiment 1.

The nature of series [3]: Acute toxicity in mice (Experiment 3). The format is in vivo, Mouse (Jcl:ICR). Particulars: mouse, in vivo. The text has this: (§1) The acute toxicity of the compound (A) was examined by using Jcl:ICR mice and JcL:Wistar rats.
Another series deals with Jcl:ICR mice. Kind of series: Acute toxicity in mice (Experiment 3). The format is in vivo, Mouse (Jcl:ICR). The note with it: mice and rats; intraperitoneal, subcutaneous and oral (Table 3).
Description: as §1

Series [4] in a line: Acute toxicity in rats (Experiment 3). More on the design: species or system Rat (JcL:Wistar). Particulars: rat, in vivo.
Description: as §1

In series [5] the test system is skin of the backs of rabbits (normal skin and damaged skin). The experiment in a line: Four-week cumulative skin irritation test in rabbits (Experiment 4). The format is in vivo, Rabbit. The note with it: 0.25 g once a day for 4 weeks. From the text: Four-Week Cumulative Skin Irritation Test in Rabbits [Procedure]
0.25 g of each of white petrolatum (placebo) and 2.5% and 5.0% compound (A) ointments (of which base is white petrolatum) was applied to 2.5×2.5cm test sites (normal skin and damaged skin) formed on the skin of the backs of rabbits once a day for 4 weeks. The skin was observed daily according to the method of Draize [J. H. Draize et al., J. Pharmacol. Exp. Therap. 82, 337 (1944)]. On the day succeeding the completion of the administration, postmortem examinations were carried out and histopathologic examinations were conducted for the skin of the administrated sites.

For the molecule `CCn1c(=O)c2c(N)n(C(=O)OC)nc2n(CC)c1=O` [Compound 1], in series [1], the inhibition in vivo at 3 mg/kg stood at 35% and the ED50 was 13.7 mg/kg.
With `CCCn1c(=O)c2c(N)n(C(=O)OC)nc2n(CCC)c1=O` [Compound 2], in series [1], the inhibition in vivo at 3 mg/kg turned out to be 50% and the ED50 was 2.4 mg/kg.
The like results for `CCCn1c(=O)c2c(NC(C)=O)[nH]nc2n(CCC)c1=O` [Compound 3] were, in that order, 55% and 2.9 mg/kg.
Take `CCCn1c(=O)c2c(N(C)C)n(C)nc2n(CCC)c1=O` [Compound 4]: in series [1], the inhibition in vivo at 3 mg/kg was found to be 56%.
Same read-out and setting: the figure for `CCCn1c(=O)c2c(N(C)C)nn(C)c2n(CCC)c1=O` [Compound 5] is 53%.
Regarding `CCCCn1c(=O)n(CCC)c(=O)c2c(NC)n(C(=O)OC)nc21` [Compound 6], in series [1], the inhibition in vivo at 3 mg/kg is 43% and the ED50 was determined as 5.3 mg/kg.
The matching figures for `CCCCn1c(=O)c2c(NC)n(C(=O)OC)nc2n(CCC)c1=O` [Compound 7]: 49% and 3 mg/kg.
On to `CCCCn1c(=O)c2c(NC)n(C(=O)OC)nc2n(CCCC)c1=O` [Compound 8], for which, in series [1], the inhibition in vivo at 3 mg/kg is 30% and the ED50 was determined as 30 mg/kg.
Regarding `CCCCn1c(=O)c2c(NC)n(C)nc2n(CCCC)c1=O` [Compound 9], the inhibition in vivo at 3 mg/kg in series [1] turned out to be 31%.
Consider `CCCCn1c(=O)n(CCC)c(=O)c2c(NC)n(C(=O)OC)nc21` [Compound (A)], for which the “Inhibition rate (%)” value in series [2] (1.25 mg/site, *p < 0.05 vs. control) is recorded as 46%; in series [2] (2.5 mg/site, **p < 0.01 vs. control), 59%. In addition, the “effect on reversed passive Arthus reaction” value in series [2] (percutaneous administration) was “significantly depresses the reversed passive Arthus reaction”. For the same molecule, the LD50 in series [3] (ip, female, intraperitoneal) was 1260 mg/kg; in series [3] (ip, male, intraperitoneal), 1040 mg/kg; in series [3] (po, female), 6310 mg/kg; in series [3] (po, male), 4650 mg/kg; in series [3] (sc, female, subcutaneous), over 5000 mg/kg; in series [3] (sc, male, subcutaneous), over 5000 mg/kg. Further, the LD50 in series [4] (ip, female, intraperitoneal) was 580 mg/kg; in series [4] (ip, male, intraperitoneal), 650 mg/kg; in series [4] (po, female) it was 2380 mg/kg; in series [4] (po, male) it was 2730 mg/kg; in series [4] (sc, female, subcutaneous), over 6500 mg/kg; in series [4] (sc, male, subcutaneous), over 6500 mg/kg. Also, the “acute toxicity” value with Jcl:ICR mice was “low in toxicity and can be safely administered”. Further, the cumulative skin irritation entry in series [5] (2.5% ointment (white petrolatum base)) and in series [5] (5% ointment (white petrolatum base)) was “no cumulative skin irritation” in each case.
